Experimental data: patent US20240294460A1, “DEUTERATED ANALOGS AND DERIVATIVES OF 4-BROMO-2,5-DIMETHOXYPHEN[…] USES THEREOF” (Terran Biosciences Inc., priority 2021, published 2024)
Several values for one entry are separate records, joined by “and”; a condition that tells them apart may be missing. Identical values can stand only once. Counter-ions that a name gives are not always drawn.

Experiment: Metabolic stability in human liver microsomes
Conditions: substrate 1 μM, NADPH 1 mM, 37° C., 0-45 min; for microsomal CLint at 1 μM / half-life at 1 μM: human, microsomes; for microsomal CLint at 1 μM: pH 7.4, CLint; for half-life at 1 μM: pH 7.4, t1/2, pooled human liver microsomes 0.5 mg/mL
Protocol: Pooled human liver microsomes were purchased from a commercial supplier. Microsomes were stored at −80° C. prior to use. […] A minus cofactor control incubation was included for each test compound where 0.1 M phosphate buffer pH 7.4 was added instead of NADPH (minus NADPH). Two control compounds (dextromethorphan and verapamil) were included with each test compound. All incubations were performed individually for each test compound. […] The reactions were stopped by transferring incubate into acetonitrile at the appropriate time points, in a 1:3 ratio. The termination plates were then centrifuged at 3,000 rpm for 20 min at 4° C. to precipitate the protein.
From a plot of ln peak area ratio (test compound peak area/internal standard peak area) against time, the gradient of the line was determined.
Elimination rate constant (k)=(−gradient)
where V=Incubation volume (μL)/Microsomal protein (mg).

[1] = pooled human liver microsomes 0.5 mg/mL

## Cl.[2H]C([2H])([2H])Oc1cc(CCN)c(OC)cc1Br [2-(4-Bromo-2-methoxy-5-(methoxy-d3)phenyl)ethan-1-amine hydrochloride]
[1]
  microsomal CLint at 1 μM: 9.22 µL/min/mg
  half-life at 1 μM: 2.5 h

## Cl.[2H]C([2H])([2H])Oc1cc(C([2H])([2H])C([2H])([2H])N)c(OC)cc1Br [2-(4-bromo-2-methoxy-5-(methoxy-d3)phenyl)ethan-1,1,2,2-d4-1-amine hydrochloride]
[1]
  microsomal CLint at 1 μM: 10.5 µL/min/mg
  half-life at 1 μM: 2.2 h

## Cl.[2H]C([2H])(N)Cc1cc(OC([2H])([2H])[2H])c(Br)cc1OC [2-(4-bromo-2-methoxy-5-(methoxy-d3)phenyl)ethan-1,1-d2-1-amine hydrochloride]
[1]
  microsomal CLint at 1 μM: 10.9 µL/min/mg
  half-life at 1 μM: 2.12 h

## Cl.[2H]C([2H])([2H])Oc1cc(Br)c(OC)cc1C([2H])([2H])C([2H])([2H])N [2-(4-bromo-5-methoxy-2-(methoxy-d3)phenyl)ethan-1,1,2,2-d4-1-amine hydrochloride]
[1]
  microsomal CLint at 1 μM: 11.9 µL/min/mg
  half-life at 1 μM: 1.95 h

## Cl.[2H]C([2H])(N)Cc1cc(OC)c(Br)cc1OC([2H])([2H])[2H] [2-(4-bromo-5-methoxy-2-(methoxy-d3)phenyl)ethan-1,1-d2-1-amine hydrochloride]
[1]
  microsomal CLint at 1 μM: 12.4 µL/min/mg
  half-life at 1 μM: 1.87 h

## Cl.[2H]C([2H])([2H])Oc1cc(Br)c(OC)cc1CCN [2-(4-bromo-5-methoxy-2-(methoxy-d3)phenyl)ethan-1-amine hydrochloride]
[1]
  microsomal CLint at 1 μM: 18.2 µL/min/mg
  half-life at 1 μM: 1.27 h

## COc1cc(CCN)c(OC)cc1Br [2C-B HCl salt, 4-bromo-2,5-dimethoxyphenethylamine, reference compound]
[1]
  microsomal CLint at 1 μM: 9.56 µL/min/mg
  half-life at 1 μM: 2.42 h

## COc1ccc2c(c1)[C@]13CCCC[C@@H]1[C@H](C2)N(C)CC3 [dextromethorphan, reference compound]
[1]
  microsomal CLint at 1 μM: 51.2 µL/min/mg
  CLint: 53.0 μL/min/mg protein and 55.0 μL/min/mg protein
  t1/2: 0.437 h and 0.42 h
  half-life at 1 μM: 0.452 h
